Results on 16 compounds are retold here after publication PMC12299554 (Pharmaceuticals, 2025).

The target of data set [1] is BChE (EC 3.1.1.8, equine serum) (Equus caballus, UniProt P81908). Kind of data set: biochemical.
The target in data set [2] is T1, AChE (EC 3.1.1.7, Electrophorus electricus, Type V-S) (Electrophorus electricus, UniProt O42275).
T1 construct: purchased Sigma-Aldrich Type V-S
Kind of data set: biochemical. Particulars: mean of three measurements ± standard deviation. How it is done: All measurements were conducted in triplicate. […] The selectivity index is calculated as IC50(AChE)/IC50(BChE).

Data set [3] has as its system LPS-stimulated TNF-α production in human peripheral blood mononuclear cells (PBMCs). Kind of data set: Inhibition of LPS-stimulated TNF-α production in PBMCs (ELISA). As to conditions: for Inhibition of LPS-stimulated TNF-α production (in words): human PBMCs, three-fold dilutions starting at 100 µM; for IC50: Homo sapiens, PBMC, 24 h, read-out: IC50 of LPS-stimulated TNF-α production. On the technique in general: ELISA stands for enzyme-linked immunosorbent assay.

The test system of data set [4] is PBMCs. Kind of data set: Cell viability of LPS-stimulated PBMCs (CellTiter-Glo). As to conditions: human PBMCs, 24 h; three-fold dilutions starting at 100 µM. Format: cell-based.

Chain of BChE (EC 3.1.1.8, equine serum) (P81908 whole entry): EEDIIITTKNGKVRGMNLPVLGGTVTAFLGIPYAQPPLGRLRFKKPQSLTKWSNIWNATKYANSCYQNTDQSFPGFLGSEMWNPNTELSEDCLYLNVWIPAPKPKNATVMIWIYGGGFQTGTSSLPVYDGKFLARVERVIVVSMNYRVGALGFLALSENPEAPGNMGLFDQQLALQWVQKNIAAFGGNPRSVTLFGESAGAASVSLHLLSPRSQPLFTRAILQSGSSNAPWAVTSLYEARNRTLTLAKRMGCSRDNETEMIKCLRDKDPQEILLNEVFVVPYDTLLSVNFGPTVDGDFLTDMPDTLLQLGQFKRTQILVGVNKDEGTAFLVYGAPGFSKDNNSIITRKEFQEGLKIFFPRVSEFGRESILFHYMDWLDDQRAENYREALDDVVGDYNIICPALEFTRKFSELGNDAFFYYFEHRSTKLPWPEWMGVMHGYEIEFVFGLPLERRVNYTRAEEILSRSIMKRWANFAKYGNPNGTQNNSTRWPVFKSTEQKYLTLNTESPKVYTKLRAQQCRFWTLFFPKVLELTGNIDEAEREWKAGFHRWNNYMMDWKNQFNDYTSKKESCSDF
T1 sequence (O42275 24-633): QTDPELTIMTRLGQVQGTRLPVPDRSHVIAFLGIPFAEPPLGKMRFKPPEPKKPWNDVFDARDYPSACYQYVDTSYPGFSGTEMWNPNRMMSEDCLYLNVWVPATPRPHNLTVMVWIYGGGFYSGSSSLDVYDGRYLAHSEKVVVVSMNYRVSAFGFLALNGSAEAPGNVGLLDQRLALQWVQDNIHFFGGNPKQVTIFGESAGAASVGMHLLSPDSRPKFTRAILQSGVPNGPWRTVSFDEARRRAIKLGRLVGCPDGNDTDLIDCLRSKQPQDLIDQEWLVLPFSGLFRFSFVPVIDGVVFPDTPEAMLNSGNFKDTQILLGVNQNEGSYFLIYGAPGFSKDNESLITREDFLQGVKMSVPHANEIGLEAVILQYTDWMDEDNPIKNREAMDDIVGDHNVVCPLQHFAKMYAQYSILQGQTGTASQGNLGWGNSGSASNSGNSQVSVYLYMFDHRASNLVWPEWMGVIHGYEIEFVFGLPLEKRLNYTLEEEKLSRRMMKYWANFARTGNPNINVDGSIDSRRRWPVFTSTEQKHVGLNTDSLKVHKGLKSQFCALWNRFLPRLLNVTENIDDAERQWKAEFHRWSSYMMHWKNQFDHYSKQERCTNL

For orientation: IC50 means the concentration at which inhibition is half-maximal. On to `C=CCn1n[n+](Cc2ccccc2)c2ccc3sccc3c21` [Compound 14, 1-allyl-3-benzyl-1H-thieno[3′,2′:3,4]benzo[1,2-d][1,2,3]triazol-3-ium bromide], for which the 50% inhibitory concentration (IC50) in data set [1] was found to be 0.098 ± 0.018 µM; in data set [2], 2.13 ± 0.13 µM.
With `Cc1cc2c(ccc3c2n(Cc2ccc(Cl)cc2)n[n+]3Cc2ccc(Cl)cc2)s1.[Br-]` [Compound 3, 1,3-bis(4-chlorobenzyl)-7-methyl-1H-thieno[3′,2′:3,4]benzo[1,2-d][1,2,3]triazol-3-ium bromide], the half-inhibitory concentration (IC50) in data set [1] worked out at 7.6 ± 0.82 µM; in data set [2], 8.89 ± 3.26 µM. In data set [3], the “Inhibition of LPS-stimulated TNF-α production (in words)” value (from here on “Inhibition”) is given as “did not inhibit TNF-α production at any tested concentrations”.
With `Cc1ccc(C[n+]2nn(Cc3ccc(Cl)cc3)c3c4ccsc4ccc32)cc1.[Br-]` [Compound 1, 1-(4-chlorobenzyl)-3-(4-methylbenzyl)-1H-thieno[3′,2′:3,4]benzo[1,2-d][1,2,3]triazol-3-ium bromide], the IC50 amounted to 2.55 ± 0.58 µM in data set [1] and 12.7 ± 1.85 µM in data set [2]. Further, the “Inhibition” value in data set [3] is recorded as “did not inhibit TNF-α production”. For the same compound, the “Effect on cell viability (in words)” value in data set [4] is given as “decreased cell viability”.
`Clc1ccc(C[n+]2nn(Cc3cccc(Cl)c3)c3c4ccsc4ccc32)cc1.[Br-]` [Compound 6, 1-(3-chlorobenzyl)-3-(4-chlorobenzyl)-1H-thieno[3′,2′:3,4]benzo[1,2-d][1,2,3]triazol-3-ium bromide]: the results for the half-maximal inhibitory concentration (IC50) in data set [1] and in data set [2] were 0.96 ± 0.14 µM and 12.9 ± 0.87 µM, respectively. Further, the “Inhibition” value in data set [3] is “did not inhibit TNF-α production at any tested concentrations”.
`COc1ccc(Cn2n[n+](Cc3ccc(C)cc3)c3ccc4sccc4c32)cc1` [Compound 12, 1-(4-methoxybenzyl)-3-(4-methylbenzyl)-1H-thieno[3′,2′:3,4]benzo[1,2-d][1,2,3]triazol-3-ium bromide]: the IC50 in data set [1] was 3.98 ± 1.25 µM; in data set [2] it was 11.8 ± 2.15 µM.
On to `Cc1cccc(Cn2n[n+](Cc3ccc(Cl)cc3)c3ccc4sccc4c32)c1` [Compound 11, 3-(4-chlorobenzyl)-1-(3-methylbenzyl)-1H-thieno[3′,2′:3,4]benzo[1,2-d][1,2,3]triazol-3-ium bromide], for which the IC50 was 1.11 ± 0.77 µM in data set [1] and 6.23 ± 0.58 µM in data set [2].
For `Cc1ccc(C[n+]2nn(Cc3cccc(F)c3)c3c4ccsc4ccc32)cc1.[Br-]` [Compound 9, 1-(3-fluorobenzyl)-3-(4-methylbenzyl)-1H-thieno[3′,2′:3,4]benzo[1,2-d][1,2,3]triazol-3-ium bromide], the IC50 in data set [1] came out at 0.363 ± 0.038 µM; in data set [3], 0.66 µM; in data set [2] it was 4.8 ± 0.71 µM. The “Effect on cell viability (in words)” value in data set [4] was “affected cell viability at the three highest concentrations tested”.
As to `Fc1cccc(Cn2n[n+](Cc3ccccc3)c3ccc4sccc4c32)c1.[Br-]` [Compound 8, 3-benzyl-1-(3-fluorobenzyl)-1H-thieno[3′,2′:3,4]benzo[1,2-d][1,2,3]triazol-3-ium bromide], the values for the IC50 in data set [1] and in data set [2] were 4.52 ± 0.17 µM and 22.2 ± 2.83 µM, respectively. Besides, the “Inhibition” value in data set [3] is given as “did not inhibit TNF-α production”. In addition, the “Effect on cell viability (in words)” value in data set [4] is recorded as “decreased cell viability”.
As to `C[C@@H]1C[C@H]2[C@@H]3CCC4=CC(=O)C=C[C@]4(C)[C@@]3(F)[C@@H](O)C[C@]2(C)[C@@]1(O)C(=O)CO` [dexamethasone, reference compound], the IC50 in data set [3] turned out to be 0.0046 µM.
As for `Clc1ccc(Cn2n[n+](Cc3ccc(Cl)cc3)c3ccc4sccc4c32)cc1.[Br-]` [Compound 2, 1,3-bis(4-chlorobenzyl)-1H-thieno[3′,2′:3,4]benzo[1,2-d][1,2,3]triazol-3-ium bromide], the IC50 in data set [1] was 4.99 ± 1.1 µM; in data set [2] it was 10.7 ± 1.46 µM. Further, the “Inhibition” value in data set [3] was “did not inhibit TNF-α production”. Besides, the “Effect on cell viability (in words)” value in data set [4] is on record as “decreased cell viability”.
On to `Clc1cccc(Cn2n[n+](Cc3ccccc3)c3ccc4sccc4c32)c1.[Br-]` [Compound 4, 3-benzyl-1-(3-chlorobenzyl)-1H-thieno[3′,2′:3,4]benzo[1,2-d][1,2,3]triazol-3-ium bromide], for which the “Inhibition” value in data set [3] is given as “did not inhibit TNF-α production”. Also, the “Effect on cell viability (in words)” value in data set [4] is “decreased cell viability”.
In the case of `Fc1cccc(Cn2n[n+](Cc3ccc(Cl)cc3)c3ccc4sccc4c32)c1` [Compound 10, 3-(4-chlorobenzyl)-1-(3-fluorobenzyl)-1H-thieno[3′,2′:3,4]benzo[1,2-d][1,2,3]triazol-3-ium bromide], the IC50 in data set [1] was determined as 2.45 ± 0.43 µM; in data set [2], 9.96 ± 0.42 µM.
On to `O=[N+]([O-])c1ccc(C[n+]2nn(Cc3cccc(Cl)c3)c3c4ccsc4ccc32)cc1.[Br-]` [Compound 7, 1-(3-chlorobenzyl)-3-(4-nitrobenzyl)-1H-thieno[3′,2′:3,4]benzo[1,2-d][1,2,3]triazol-3-ium bromide], for which the results for the 50% inhibitory concentration (IC50) in data set [1] and in data set [2] were 10 ± 1.64 µM and 11.4 ± 0.39 µM, respectively. Moreover, the “Inhibition” value in data set [3] is recorded as “did not inhibit TNF-α production at any tested concentrations”.
`COc1ccc(Cn2n[n+](Cc3ccc(Cl)cc3)c3ccc4sccc4c32)cc1` [Compound 13, 3-(4-chlorobenzyl)-1-(4-methoxybenzyl)-1H-thieno[3′,2′:3,4]benzo[1,2-d][1,2,3]triazol-3-ium bromide]: the concentration for half-maximal inhibition (IC50) in data set [1] turned out to be 4.05 ± 1.05 µM; in data set [2], 7.4 ± 0.94 µM.
With `Cc1ccc(C[n+]2nn(Cc3cccc(Cl)c3)c3c4ccsc4ccc32)cc1.[Br-]` [Compound 5, 1-(3-chlorobenzyl)-3-(4-methylbenzyl)-1H-thieno[3′,2′:3,4]benzo[1,2-d][1,2,3]triazol-3-ium bromide], the IC50 stood at 8.13 ± 0.83 µM in data set [1] and 55.6 ± 2.36 µM in data set [2]. In addition, the “Inhibition” value in data set [3] is recorded as “did not inhibit TNF-α production”. In addition, the “Effect on cell viability (in words)” value in data set [4] is reported as “decreased cell viability”.
Take `CC=Cn1n[n+](Cc2ccccc2)c2ccc3sccc3c21` [Compound 15, 3-benzyl-1-(prop-1-en-1-yl)-1H-thieno[3′,2′:3,4]benzo[1,2-d][1,2,3]triazol-3-ium bromide]: the results for the IC50 in data set [1] and in data set [2] were 0.732 ± 0.137 µM and 3.62 ± 0.42 µM, respectively.
